# Source: the supplement of paper PMC13380429
# What was measured:
# Conditions in all cases: 72 h
# Calu-3 [1] = test: cell viability relative to DMSO; higher = less toxic
# Vero E6 [2] = test: as above
# U2OS [3] = test: as above
# Caco-2 [4] = test: as above
# HepG2 [5] = test: as above
# Calu-3 [6] = test: drug sensitivity score (DSS) for viability; higher = more toxic; extreme values may be limits of the assay
# Vero E6 [7] = test: as above
# U2OS [8] = test: as above
# Caco-2 [9] = test: as above
# HepG2 [10] = test: as above
# Calu-3 [11] = test: relative viability EC50 (midpoint between 100% and the lowest measured viability); higher = less toxic
# Vero E6 [12] = test: as above
# U2OS [13] = test: as above
# HepG2 [14] = test: as above
# Caco-2 [15] = test: as above
SMILES,cell viability (Calu-3 [1]; 1 nM) [%],cell viability (Calu-3 [1]; 10 nM) [%],cell viability (Calu-3 [1]; 100 nM) [%],cell viability (Calu-3 [1]; 1000 nM) [%],cell viability (Calu-3 [1]; 10000 nM) [%],cell viability (Vero E6 [2]; 1 nM) [%],cell viability (Vero E6 [2]; 10 nM) [%],cell viability (Vero E6 [2]; 100 nM) [%],cell viability (Vero E6 [2]; 1000 nM) [%],cell viability (Vero E6 [2]; 10000 nM) [%],cell viability (U2OS [3]; 1 nM) [%],cell viability (U2OS [3]; 10 nM) [%],cell viability (U2OS [3]; 100 nM) [%],cell viability (U2OS [3]; 1000 nM) [%],cell viability (U2OS [3]; 10000 nM) [%],cell viability (Caco-2 [4]; 1 nM) [%],cell viability (Caco-2 [4]; 10 nM) [%],cell viability (Caco-2 [4]; 100 nM) [%],cell viability (Caco-2 [4]; 1000 nM) [%],cell viability (Caco-2 [4]; 10000 nM) [%],cell viability (HepG2 [5]; 1 nM) [%],cell viability (HepG2 [5]; 10 nM) [%],cell viability (HepG2 [5]; 100 nM) [%],cell viability (HepG2 [5]; 1000 nM) [%],cell viability (HepG2 [5]; 10000 nM) [%],drug sensitivity score (Calu-3 [6]),drug sensitivity score (Vero E6 [7]),drug sensitivity score (U2OS [8]),drug sensitivity score (Caco-2 [9]),drug sensitivity score (HepG2 [10]),relative viability EC50 (Calu-3 [11]) [µM],relative viability EC50 (Vero E6 [12]) [µM],relative viability EC50 (U2OS [13]) [µM],relative viability EC50 (HepG2 [14]) [µM],relative viability EC50 (Caco-2 [15]) [µM]
CCCCCS(=O)(=O)CCCCCCCCCCn1c(-c2ccc(O)cc2)c(C)c2cc(O)ccc21,101,98.3,100,106,76.5,95,99.3,100,98.1,77.6,99.2,96.6,100,101,91.5,86.2,98.7,97.7,96.8,55.5,104,92.3,98.5,96.6,33.8,0.6,1,0,2.8,4.1,> 10,> 10,> 10,2.77,–
CCN(CC)CCCCNc1ncc2cc(-c3c(Cl)cccc3Cl)c(NC(=O)NC(C)(C)C)nc2n1,104,90,104,77.2,29.8,102,102,104,104,25.2,100,101,95.2,76.8,31.9,98.4,94.3,96,75.2,69.5,98.3,102,106,65.5,40.3,7.2,3.8,6.7,4.4,7.5,1.34,3.48,1.38,0.885,–
CCOC(=O)c1ncc2[nH]c3cccc(OC(C)C)c3c2c1C,88.7,112,99.1,104,74.9,–,–,–,–,–,–,–,–,–,–,101,113,109,103,75,114,102,137,98.8,109,0.8,–,–,0.8,0,–,–,–,> 10,> 10
COc1ccc(CNC(=O)Nc2ncc([N+](=O)[O-])s2)cc1,104,107,94.9,107,96.5,106,104,101,102,97.2,96.1,104,96.5,102,90.8,105,103,95.5,103,73.7,113,107,102,99.8,30.3,0,0,0,0.9,3.9,> 10,> 10,> 10,3.15,–
Cc1n[nH]c(C)c1Cc1sc2c(c1C(=O)N1C[C@H](O)CO1)c(=O)n(C)c(=O)n2CC(C)C,102,86.3,99.4,93.3,99.8,89.7,98.7,92.9,95.7,101,97.8,92.6,89.4,86.7,89.7,91.3,79.3,77.2,67.4,69,97,108,95,98.8,109,0,0,1.2,10.2,0,> 10,> 10,> 10,> 10,–
Nc1nc(Nc2ccc(S(N)(=O)=O)cc2)nn1C(=O)c1c(F)cccc1F,102,97.1,98.1,127,33.2,107,104,106,99.1,68.7,102,102,100,104,2.1,107,100,101,106,63.7,103,103,92.8,76.7,8.9,2.6,1.5,5.1,1.4,8.6,4.32,–,3.41,1.53,–
COc1ccc2c(Oc3ccc(NC(=O)c4c(C)n(CC(C)(C)O)n(-c5ccccc5)c4=O)nc3)ccnc2c1 [AMG458],99.1,106,100,92.7,86.6,104,103,104,98.6,102,102,116,99.3,103,93.3,99.6,106,90.8,95.9,72,99.3,92.2,98.2,88.3,65.8,0.5,0,0,1.8,3,> 10,> 10,> 10,–,–
